The target in test [1] is Vascular endothelial growth factor receptor 1 (Homo sapiens, UniProt P17948).
Test [2] addresses Mast/stem cell growth factor receptor Kit (Homo sapiens, UniProt P10721).
The next test deals with Cytochrome P450 3A4 (Homo sapiens, UniProt P08684). Put plainly: Inhibition of CYP3A4 in human liver microsome. In kind it is ADME.
A further test concerns the target Angiopoietin-1 receptor (Homo sapiens, UniProt Q02763). Put plainly: Inhibition of Tie2 at 1 mM ATP by HTRF assay.
In test [3] the target is Vascular endothelial growth factor receptor 2 (Homo sapiens, UniProt P35968).

40 compounds from ChEMBL document CHEMBL1146863, “1,4-Dihydroindeno[1,2-c]pyrazoles as novel multitargeted receptor tyrosine kinase inhibitors” (Bioorg Med Chem Lett, 2006) can be followed below.

SMILES strings stand for the structures. Where only a bound is given, the exact number is not on record here.

Sequence of Vascular endothelial growth factor receptor 1 (P17948 whole entry): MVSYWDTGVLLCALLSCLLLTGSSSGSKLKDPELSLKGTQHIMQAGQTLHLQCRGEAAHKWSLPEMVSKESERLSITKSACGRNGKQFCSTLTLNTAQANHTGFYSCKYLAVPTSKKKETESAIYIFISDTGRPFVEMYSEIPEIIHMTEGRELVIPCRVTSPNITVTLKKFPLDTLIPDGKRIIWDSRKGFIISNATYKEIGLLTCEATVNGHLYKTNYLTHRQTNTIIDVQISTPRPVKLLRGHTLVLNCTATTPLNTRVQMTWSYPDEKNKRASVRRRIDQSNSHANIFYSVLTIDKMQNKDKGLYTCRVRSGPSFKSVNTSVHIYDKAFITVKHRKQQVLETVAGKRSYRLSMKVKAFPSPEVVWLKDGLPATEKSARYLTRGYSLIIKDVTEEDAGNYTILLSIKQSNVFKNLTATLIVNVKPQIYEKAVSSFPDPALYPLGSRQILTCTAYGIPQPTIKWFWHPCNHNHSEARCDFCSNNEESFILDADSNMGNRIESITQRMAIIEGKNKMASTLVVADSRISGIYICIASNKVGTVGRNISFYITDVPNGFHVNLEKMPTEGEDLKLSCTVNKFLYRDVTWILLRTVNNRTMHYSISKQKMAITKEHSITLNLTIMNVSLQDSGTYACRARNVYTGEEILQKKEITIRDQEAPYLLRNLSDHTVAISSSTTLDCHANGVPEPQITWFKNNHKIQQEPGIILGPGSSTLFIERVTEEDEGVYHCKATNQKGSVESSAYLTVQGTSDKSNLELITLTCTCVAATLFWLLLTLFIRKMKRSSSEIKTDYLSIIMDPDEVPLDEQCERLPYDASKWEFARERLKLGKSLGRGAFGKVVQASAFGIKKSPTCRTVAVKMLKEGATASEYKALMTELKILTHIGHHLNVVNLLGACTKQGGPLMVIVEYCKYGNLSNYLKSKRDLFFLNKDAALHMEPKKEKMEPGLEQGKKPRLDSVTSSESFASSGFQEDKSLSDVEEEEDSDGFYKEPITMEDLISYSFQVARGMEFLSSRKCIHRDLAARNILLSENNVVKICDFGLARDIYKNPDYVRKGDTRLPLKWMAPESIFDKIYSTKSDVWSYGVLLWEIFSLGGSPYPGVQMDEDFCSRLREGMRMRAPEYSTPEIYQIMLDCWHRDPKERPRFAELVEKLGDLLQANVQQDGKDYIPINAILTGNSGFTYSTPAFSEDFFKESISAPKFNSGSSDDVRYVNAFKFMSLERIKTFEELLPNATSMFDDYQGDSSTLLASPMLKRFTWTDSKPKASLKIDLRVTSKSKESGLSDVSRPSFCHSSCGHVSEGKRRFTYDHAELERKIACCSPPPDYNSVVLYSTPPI
Sequence of Mast/stem cell growth factor receptor Kit (P10721 whole entry): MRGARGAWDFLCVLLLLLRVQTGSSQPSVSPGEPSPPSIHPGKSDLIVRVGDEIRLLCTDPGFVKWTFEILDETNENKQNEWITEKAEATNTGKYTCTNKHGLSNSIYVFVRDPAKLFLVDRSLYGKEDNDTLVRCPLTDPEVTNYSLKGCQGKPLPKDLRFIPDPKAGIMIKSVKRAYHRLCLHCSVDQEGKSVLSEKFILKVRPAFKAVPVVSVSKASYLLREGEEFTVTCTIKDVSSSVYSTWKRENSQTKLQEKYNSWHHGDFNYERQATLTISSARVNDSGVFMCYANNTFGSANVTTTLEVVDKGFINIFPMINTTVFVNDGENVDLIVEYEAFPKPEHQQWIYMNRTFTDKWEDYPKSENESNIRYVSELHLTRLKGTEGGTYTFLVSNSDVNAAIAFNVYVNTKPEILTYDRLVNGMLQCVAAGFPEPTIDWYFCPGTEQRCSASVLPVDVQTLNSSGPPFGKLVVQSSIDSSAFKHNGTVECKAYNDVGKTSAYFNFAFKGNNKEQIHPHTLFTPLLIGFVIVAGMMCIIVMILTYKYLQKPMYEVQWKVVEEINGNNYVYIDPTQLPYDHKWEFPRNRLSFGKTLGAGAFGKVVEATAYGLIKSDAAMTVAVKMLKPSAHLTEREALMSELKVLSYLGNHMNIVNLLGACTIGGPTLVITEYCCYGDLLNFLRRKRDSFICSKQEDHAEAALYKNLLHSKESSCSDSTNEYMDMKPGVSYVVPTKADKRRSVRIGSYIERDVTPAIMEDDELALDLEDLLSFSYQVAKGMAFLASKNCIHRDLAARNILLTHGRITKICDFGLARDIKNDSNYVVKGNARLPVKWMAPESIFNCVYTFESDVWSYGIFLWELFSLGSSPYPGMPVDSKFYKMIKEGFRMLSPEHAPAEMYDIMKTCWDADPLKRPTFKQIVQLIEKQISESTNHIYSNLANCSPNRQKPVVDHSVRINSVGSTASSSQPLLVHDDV
Sequence of Vascular endothelial growth factor receptor 2 (P35968 whole entry): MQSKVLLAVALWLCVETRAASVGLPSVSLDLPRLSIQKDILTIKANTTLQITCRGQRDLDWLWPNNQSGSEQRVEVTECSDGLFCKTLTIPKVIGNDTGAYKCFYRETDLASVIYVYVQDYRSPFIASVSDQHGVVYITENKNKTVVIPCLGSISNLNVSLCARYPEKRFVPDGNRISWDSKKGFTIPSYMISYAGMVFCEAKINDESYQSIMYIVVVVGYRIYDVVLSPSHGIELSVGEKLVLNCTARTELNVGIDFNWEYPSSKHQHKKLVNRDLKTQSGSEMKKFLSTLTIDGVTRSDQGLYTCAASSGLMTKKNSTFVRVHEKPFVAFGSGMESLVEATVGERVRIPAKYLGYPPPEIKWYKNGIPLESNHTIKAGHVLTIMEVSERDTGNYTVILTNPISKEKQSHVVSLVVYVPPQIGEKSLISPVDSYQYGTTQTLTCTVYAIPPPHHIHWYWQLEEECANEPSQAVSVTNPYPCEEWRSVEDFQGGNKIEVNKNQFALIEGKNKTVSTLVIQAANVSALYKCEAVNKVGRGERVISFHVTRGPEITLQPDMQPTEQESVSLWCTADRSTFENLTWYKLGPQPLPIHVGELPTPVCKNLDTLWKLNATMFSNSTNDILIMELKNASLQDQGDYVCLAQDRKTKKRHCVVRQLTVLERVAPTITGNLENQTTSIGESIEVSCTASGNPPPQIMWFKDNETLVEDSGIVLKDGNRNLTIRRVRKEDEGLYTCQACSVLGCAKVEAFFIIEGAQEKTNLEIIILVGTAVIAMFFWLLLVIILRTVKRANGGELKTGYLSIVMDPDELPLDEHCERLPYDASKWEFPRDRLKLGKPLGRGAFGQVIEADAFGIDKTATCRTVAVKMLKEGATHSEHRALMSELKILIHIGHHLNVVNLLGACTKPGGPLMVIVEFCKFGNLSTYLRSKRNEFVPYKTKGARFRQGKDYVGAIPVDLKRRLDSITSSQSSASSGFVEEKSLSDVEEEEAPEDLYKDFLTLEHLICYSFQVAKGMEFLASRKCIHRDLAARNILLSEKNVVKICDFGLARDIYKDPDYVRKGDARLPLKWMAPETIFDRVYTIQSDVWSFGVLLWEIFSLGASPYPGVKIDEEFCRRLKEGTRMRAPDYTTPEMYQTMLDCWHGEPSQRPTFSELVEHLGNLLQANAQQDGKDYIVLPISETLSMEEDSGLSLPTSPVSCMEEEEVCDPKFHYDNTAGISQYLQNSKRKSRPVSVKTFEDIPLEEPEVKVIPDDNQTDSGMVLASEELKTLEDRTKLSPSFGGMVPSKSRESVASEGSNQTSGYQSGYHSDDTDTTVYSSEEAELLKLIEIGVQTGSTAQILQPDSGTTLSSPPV
Sequence of Cytochrome P450 3A4 (P08684 whole entry): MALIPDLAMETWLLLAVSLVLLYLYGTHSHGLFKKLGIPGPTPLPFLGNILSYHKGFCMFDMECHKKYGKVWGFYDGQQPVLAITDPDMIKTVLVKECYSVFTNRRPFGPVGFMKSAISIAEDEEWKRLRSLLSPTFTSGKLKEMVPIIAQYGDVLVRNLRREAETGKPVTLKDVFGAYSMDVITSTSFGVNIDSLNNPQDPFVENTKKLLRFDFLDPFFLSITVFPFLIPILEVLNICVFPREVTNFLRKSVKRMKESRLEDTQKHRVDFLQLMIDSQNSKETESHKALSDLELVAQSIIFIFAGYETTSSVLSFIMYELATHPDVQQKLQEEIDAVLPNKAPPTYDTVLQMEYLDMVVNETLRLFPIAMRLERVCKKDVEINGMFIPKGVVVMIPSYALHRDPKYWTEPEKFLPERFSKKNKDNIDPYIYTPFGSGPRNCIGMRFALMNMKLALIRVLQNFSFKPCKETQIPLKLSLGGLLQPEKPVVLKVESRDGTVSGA

As to `Cc1cccc(NC(=O)N(Cc2ccc(-c3[nH]nc4c3Cc3cc(CN5CCN(C)CC5)ccc3-4)s2)C2CC2)c1`, the IC50 in test [1] was determined as 38 nM; in test [2] it was 136 nM.

For the compound `Cc1cccc(NC(=O)N(Cc2ccc(-c3[nH]nc4c3Cc3cc(CN5CCN(C)CC5)ccc3-4)s2)CC(C)C)c1`, the IC50 stood at 1590 nM in test [1] and 17200 nM in test [2].

For `CN1CCN(Cc2ccc3c(c2)Cc2c-3n[nH]c2-c2ccc(CN(C)C(=O)Nc3cccc(OC(F)(F)F)c3)s2)CC1`, the IC50 is 19 nM in test [1] and 56 nM in test [2].

Consider `Cc1cc(C)cc(NC(=O)NCc2ccc(-c3n[nH]c4c3Cc3cc(CN5CCN(C)CC5)ccc3-4)s2)c1`, for which the results for the half-maximal inhibitory concentration (IC50) in test [1] and in test [2] were 1670 nM and 27 nM, respectively.

For `CN1CCN(Cc2ccc3c(c2)-c2[nH]nc(-c4ccsc4)c2C3)CC1`, the IC50 at Cytochrome P450 3A4 was above 10000 nM.

In the case of `CN1CCN(Cc2ccc3c(c2)Cc2c-3n[nH]c2-c2ccc(CNC(=O)Nc3ccccc3C(F)(F)F)s2)CC1`, the IC50 in test [1] is above 50000 nM; in test [2] it was 23800 nM.

On to `CN1CCN(Cc2ccc3c(c2)Cc2c(-c4ccc(CNC(=O)Nc5cc(Cl)cc(Cl)c5)s4)n[nH]c2-3)CC1`, for which the IC50 in test [1] amounted to 2280 nM; in test [2], 38 nM.

Turning to `CN1CCN(Cc2ccc3c(c2)-c2[nH]nc(-c4ccc(CNC(=O)Nc5ccccc5)s4)c2C3)CC1`, the IC50 stood at 3780 nM in test [1] and 101 nM in test [2].

With `CN1CCN(Cc2ccc3c(c2)-c2n[nH]c(-c4ccc(CN(C)C(=O)Nc5ccc(Cl)cc5)s4)c2C3)CC1`, the figures for the IC50 in test [1] and in test [2] were 64 nM and 36 nM, respectively.

As to `Cc1cccc(NC(=O)NCc2ccc(-c3n[nH]c4c3Cc3cc(CN5CCN(C)CC5)ccc3-4)s2)c1`, the IC50 was 2900 nM in test [1] and 86 nM in test [2].

`CON(Cc1ccc(-c2[nH]nc3c2Cc2cc(CN4CCN(C)CC4)ccc2-3)s1)C(=O)Nc1cccc(C)c1`: the half-inhibitory concentration (IC50) in test [1] came to 1350 nM; in test [2], 237 nM.

As to `CN1CCN(Cc2ccc3c(c2)Cc2c(-c4ccc(CNC(=O)Nc5ccc(C(F)(F)F)cc5)s4)n[nH]c2-3)CC1`, the IC50 in test [1] stood at 4200 nM; in test [2] it was 13 nM.

In the case of `CN1CCN(Cc2ccc3c(c2)Cc2c-3n[nH]c2-c2ccc(CN(C)C(=O)Nc3ccccc3Cl)s2)CC1`, the half-inhibitory concentration (IC50) is 3840 nM in test [1] and above 50000 nM in test [2].

Consider `CN1CCN(Cc2ccc3c(c2)-c2n[nH]c(-c4ccc(CN(C)C(=O)Nc5cccc(Cl)c5)s4)c2C3)CC1`, for which the figures for the IC50 in test [1] and in test [2] were 20 nM and 38 nM, respectively.

In turn, `CN1CCN(Cc2ccc3c(c2)Cc2c(-c4ccc(CNC(=O)Nc5ccccc5Cl)s4)n[nH]c2-3)CC1` gave an IC50 in test [2] of 921 nM.

For the compound `CCCN(Cc1ccc(-c2[nH]nc3c2Cc2cc(CN4CCN(C)CC4)ccc2-3)s1)C(=O)Nc1cccc(C)c1`, the values for the IC50 in test [1] and in test [2] were 59 nM and 75 nM, respectively.

Consider `Cc1cccc(N(C)C(=O)N(C)Cc2ccc(-c3[nH]nc4c3Cc3cc(CN5CCN(C)CC5)ccc3-4)s2)c1`, for which the concentration for half-maximal inhibition (IC50) in test [1] amounted to 27900 nM; in test [2] it was 26800 nM.

For the compound `Cc1ccc(NC(=O)NCc2ccc(-c3n[nH]c4c3Cc3ccc(CN5CCN(C)CC5)cc3-4)s2)cc1`, the 50% inhibitory concentration (IC50) in test [1] was 613 nM; in test [2], 27 nM.

Turning to `CN1CCN(Cc2ccc3c(c2)-c2n[nH]c(-c4ccc(CN(C)C(=O)Nc5cccc(C(F)(F)F)c5)s4)c2C3)CC1`, the 50% inhibitory concentration (IC50) at Angiopoietin-1 receptor was found to be 259 nM; in test [1], 14 nM; in test [2] it was 18 nM.

Take `c1cn(Cc2ccc3c(c2)-c2[nH]nc(-c4ccsc4)c2C3)cn1`: the half-maximal inhibitory concentration (IC50) amounted to 147 nM in test [3] and 254 nM against Cytochrome P450 3A4.

As for `Cc1ccc(NC(=O)NCc2ccc(-c3[nH]nc4c3Cc3cc(CN5CCN(C)CC5)ccc3-4)s2)cc1`, the half-maximal inhibitory concentration (IC50) in test [1] came to 11500 nM; in test [2], 24 nM.

For `CN1CCN(Cc2ccc3c(c2)Cc2c-3n[nH]c2-c2ccc(CN(C)C(=O)Nc3cc(F)cc(C(F)(F)F)c3)s2)CC1`, the IC50 in test [1] turned out to be 33 nM; in test [2], 25 nM.

Regarding `Cc1cccc(NC(=O)N(C)Cc2ccc(-c3[nH]nc4c3Cc3cc(CN5CCN(C)CC5)ccc3-4)s2)c1`, the IC50 worked out at 4720 nM in test [1] and 14700 nM in test [2].

Turning to `CCN(Cc1ccc(-c2[nH]nc3c2Cc2cc(CN4CCN(C)CC4)ccc2-3)s1)C(=O)Nc1cccc(C)c1`, the IC50 in test [1] was 131 nM; in test [2] it was 2190 nM.

For the compound `Cc1cccc(NC(=O)NCc2ccc(-c3n[nH]c4c3Cc3ccc(CN5CCN(C)CC5)cc3-4)s2)c1`, the IC50 is 592 nM in test [1] and 69 nM in test [2].

In test [3], `CN1CCN(Cc2ccc3c(c2)Cc2c-3n[nH]c2-c2csc(CNS(=O)(=O)Cc3ccccc3)c2)CC1` displayed an IC50 above 50000 nM.

With `CN1CCN(Cc2ccc3c(c2)-c2n[nH]c(-c4ccc(CN(C)C(=O)Nc5ccc(OC(F)(F)F)cc5)s4)c2C3)CC1`, the IC50 in test [1] was 25 nM; in test [2], 19 nM.

`Cc1ccc2nc(NCc3ccc(-c4[nH]nc5c4Cc4cc(CN6CCN(C)CC6)ccc4-5)s3)[nH]c2c1`: the IC50 in test [3] was above 50000 nM.

On to `Cc1cccc(NC(=O)N(C)Cc2ccc(-c3n[nH]c4c3Cc3ccc(CN5CCN(C)CC5)cc3-4)s2)c1`, for which the results for the IC50 in test [1] and in test [2] were 44 nM and 96 nM, respectively.

`Cc1cccc(N/C(=N/Cc2ccc(-c3n[nH]c4c3Cc3cc(CN5CCN(C)CC5)ccc3-4)s2)NC#N)c1`: the IC50 in test [3] was above 50000 nM.

On to `Cc1ccccc1NC(=O)NCc1ccc(-c2[nH]nc3c2Cc2cc(CN4CCN(C)CC4)ccc2-3)s1`, for which the IC50 in test [1] came to 25000 nM; in test [2], 1390 nM.

Turning to `COCCN(Cc1ccc(-c2[nH]nc3c2Cc2cc(CN4CCN(C)CC4)ccc2-3)s1)C(=O)Nc1cccc(C)c1`, the IC50 in test [1] was 2260 nM; in test [2] it was above 50000 nM.

As to `CN1CCN(Cc2ccc3c(c2)-c2n[nH]c(-c4ccc(CN(C)C(=O)Nc5ccc(Br)cc5)s4)c2C3)CC1`, the values for the IC50 in test [1] and in test [2] were 38 nM and 17 nM, respectively.

For `Cc1cccc(N(C)C(=O)NCc2ccc(-c3[nH]nc4c3Cc3cc(CN5CCN(C)CC5)ccc3-4)s2)c1`, the IC50 was 14600 nM in test [1] and 139 nM in test [2].

For `CN1CCN(Cc2ccc3c(c2)-c2n[nH]c(-c4ccc(CN(C)C(=O)Nc5ccc(F)cc5)s4)c2C3)CC1`, the IC50 in test [1] came to 83 nM; in test [2], 59 nM.

On to `CN1CCN(Cc2ccc3c(c2)-c2n[nH]c(-c4ccc(CN(C)C(=O)Nc5ccc(Cl)c(Cl)c5)s4)c2C3)CC1`, for which the IC50 turned out to be 36 nM in test [1] and 28 nM in test [2].

`Cc1cccc(NC(=O)N(CCC(C)C)Cc2ccc(-c3[nH]nc4c3Cc3cc(CN5CCN(C)CC5)ccc3-4)s2)c1`: the IC50 stood at 3620 nM in test [1] and 4840 nM in test [2].

`CN1CCN(Cc2ccc3c(c2)Cc2c-3n[nH]c2-c2ccc(CNC(=O)Nc3cccc(C(F)(F)F)c3)s2)CC1`: the values for the IC50 in test [1] and in test [2] were 863 nM and 17 nM, respectively.

`Cc1ccccc1NC(=O)NCc1ccc(-c2[nH]nc3c2Cc2ccc(CN4CCN(C)CC4)cc2-3)s1`: the IC50 amounted to 2060 nM in test [1] and 674 nM in test [2].

Turning to `Cc1cccc(NC(=O)N(Cc2ccc(-c3[nH]nc4c3Cc3cc(CN5CCN(C)CC5)ccc3-4)s2)C(C)C)c1`, the IC50 came out at 2820 nM in test [1] and 9750 nM in test [2].
